In article PMC10649008 (Antimicrobial Agents and Chemotherapy, 2023):
Like-named read-outs stand apart in the source and are kept apart here.

What was measured:
[1] = Single-dose plasma pharmacokinetics of telavancin in pediatric subjects (noncompartmental analysis); assay type: in vivo, human; conditions: single 10 mg/kg IV infusion over 60 min; for Tmax / Cmax / half-life: iv; for Tmax: median (minimum–maximum), read-out: T max (time at maximum concentration); for Cmax: read-out: C max (maximum plasma concentration); for half-life: read-out: T 1/2 (terminal elimination half-life) (converted)
Experimental: The drug was infused over 60 min on Day 1. Blood samples were collected at 1, 1.5, 2, 6, 12, and 24 h following the start of infusion for PK analysis.
Subjects with missing early PK samples were included in the PK population for plasma concentrations at each collected time point, but they were excluded from the PK modeling. […] The primary endpoints calculated from the plasma concentration-time data were maximum observed plasma concentration (C max), time to reach maximum plasma concentration (T max), area under the plasma concentration versus time curve from time 0 to the last sample with measurable analyte concentration (AUC0-last), area under the concentration versus time curve extrapolated to infinity (AUCinf), and terminal elimination half-life (T 1/2). CL and apparent steady-state volume of distribution (Vss) were also calculated from the plasma concentration-time data. PK parameters were calculated using noncompartmental analysis with Phoenix WinNonlin v8.1 (Certara, Princeton, NJ, USA).
For calculation of mean concentrations at each time point and generation for mean concentration versus time profiles, all values below the limit of quantification (BLQ) were set to 0. […] For the NCA, actual infusion durations and actual sampling times were used. Infusion duration was calculated as the difference between the start of infusion time and the end of infusion time. Actual sampling times were calculated as the difference between the start of infusion time and the sampling time.
For PK analysis and individual concentration versus time plots, a concentration that was BLQ was assigned a value of 0, if it occurred in a profile before the first measurable concentration and was set to missing thereafter, if two BLQ values occurred in succession after C max, the profile was deemed to have terminated at the first BLQ value, and any subsequent concentrations were omitted from PK calculations.

[2] = Text: All study procedures were reviewed and approved by the respective Institutional Review Board for each study site. Prior to any study procedures, written informed consent from a parent or legal guardian and assent (if appropriate for older patients) were obtained. The patient population consisted of subjects aged >12 months to <17 years of age who required systemic antibiotic therapy for the treatment or prevention of known or suspected bacterial infection. Subjects were enrolled into four cohorts stratified by age: adolescents (12–17 years of age), older children (6–11 years of age), younger children (2–5 years of age), and infants (1–2 years of age). […] The study consisted of a screening period followed by a treatment period and a safety follow-up period through Day 8 ± 1 day.
Safety was monitored during both the screening and treatment periods by physical exams, vital signs, urinalysis, and clinical laboratory measures (complete blood count with differential, serum chemistry, creatinine, and liver enzymes); AEs and concomitant medications were recorded from screening through follow-up on Day 8 (± 1 day). Medical and medication history and demographics were collected at screening. Vital signs (heart rate, blood pressure, respiratory rate, and body temperature) were collected at screening, Days 1 and 2 of the study.

[3] = Cohort 2 (6–11 years), N = 6, plasma, noncompartmental, mean ± SD
[4] = Cohort 3 (2–5 years), N = 1, plasma, noncompartmental
[5] = human, in vivo, 10 mg/kg, Cohort 1 (12–17 years), N = 13, plasma, mean ± SD
[6] = human, in vivo, 10 mg/kg, Cohort 2 (6–11 years), N = 6, plasma, mean ± SD
[7] = Cohort 1 (12–17 years), of 16 AEs, single 10 mg/kg IV

## CCCCCCCCCCNCCN[C@@]1(C)C[C@H](O[C@H]2[C@H](Oc3c4cc5cc3Oc3ccc(cc3Cl)[C@@H](O)[C@@H](NC(=O)[C@@H](CC(C)C)NC)C(=O)N[C@@H](CC(N)=O)C(=O)N[C@H]5C(=O)N[C@H]3C(=O)N[C@H](C(=O)N[C@H](C(=O)O)c5cc(O)c(CNCP(=O)(O)O)c(O)c5-c5cc3ccc5O)[C@H](O)c3ccc(c(Cl)c3)O4)O[C@H](CO)[C@@H](O)[C@@H]2O)O[C@@H](C)[C@H]1O [telavancin]
[1]; Cohort 1 (12–17 years), N = 13–14, nominal time 1 h after start of infusion, mean ± SD
  Mean plasma telavancin concentration: 58.1 ± 8.38
[1]; Cohort 1 (12–17 years), N = 13–14, nominal time 1.5 h, mean ± SD
  Mean plasma telavancin concentration: 46.2 ± 7.01
[1]; Cohort 1 (12–17 years), N = 13–14, nominal time 2 h, mean ± SD
  Mean plasma telavancin concentration: 37.4 ± 5.26
[1]; Cohort 1 (12–17 years), N = 13–14, nominal time 6 h, mean ± SD
  Mean plasma telavancin concentration: 19.8 ± 3.58
[1]; Cohort 1 (12–17 years), N = 13–14, nominal time 12 h, mean ± SD
  Mean plasma telavancin concentration: 8.84 ± 3.51
[1]; Cohort 1 (12–17 years), N = 13–14, nominal time 24 h, mean ± SD
  Mean plasma telavancin concentration: 2.14 ± 0.922
[1]; Cohort 2 (6–11 years), N = 6, mean ± SD
  CL (clearance): 0.5 ± 0.135 mL/min/kg
[1]; [3]
  AUC0-inf (area under the curve extrapolated to infinity): 351 ± 79.7 µg·h/mL
  AUC0-last (area under the curve from time zero until the last PK sample): 333 ± 74.2 µg·h/mL
[1]; Cohort 2 (6–11 years), N = 6–7, nominal time 1 h after start of infusion, mean ± SD
  Mean plasma telavancin concentration: 60.1 ± 11.9
[1]; Cohort 2 (6–11 years), N = 6–7, nominal time 1.5 h, mean ± SD
  Mean plasma telavancin concentration: 48.4 ± 8.66
[1]; Cohort 2 (6–11 years), N = 6–7, nominal time 2 h, mean ± SD
  Mean plasma telavancin concentration: 41.9 ± 7.65
[1]; Cohort 2 (6–11 years), N = 6–7, nominal time 6 h, mean ± SD
  Mean plasma telavancin concentration: 20.7 ± 3.64
[1]; Cohort 2 (6–11 years), N = 6–7, nominal time 12 h, mean ± SD
  Mean plasma telavancin concentration: 9.20 ± 2.50
[1]; Cohort 2 (6–11 years), N = 6–7, nominal time 24 h, mean ± SD
  Mean plasma telavancin concentration: 2.08 ± 1.23
[1]; Cohort 3 (2–5 years), N = 1
  CL (clearance): 0.728 mL/min/kg
  T max (time at maximum concentration): 1.18 h
[1]; Cohort 3 (2–5 years), N = 1, nominal time 1 h after start of infusion
  Mean plasma telavancin concentration: 53.1
[1]; Cohort 3 (2–5 years), N = 1, nominal time 1.5 h
  Mean plasma telavancin concentration: 45.0
[1]; Cohort 3 (2–5 years), N = 1, nominal time 2 h
  Mean plasma telavancin concentration: 37.3
[1]; Cohort 3 (2–5 years), N = 1, nominal time 6 h
  Mean plasma telavancin concentration: 18.0
[1]; Cohort 3 (2–5 years), N = 1, nominal time 12 h
  Mean plasma telavancin concentration: 2.67
[1]; Cohort 3 (2–5 years), N = 1, nominal time 24 h
  Mean plasma telavancin concentration: 0.146
[1]; Cohort 3 (2–5 years), N = 1, plasma
  C max (maximum plasma concentration): 53.1 µg/mL
[1]; Cohort 3 (2–5 years), N = 1, plasma, 10 mg/kg
  T 1/2 (terminal elimination half-life): 2.73 h
[1]; [4]
  AUC0-inf (area under the curve extrapolated to infinity): 229 µg·h/mL
  AUC0-last (area under the curve from time zero until the last PK sample): 228 µg·h/mL
[1]; human, in vivo, 10 mg/kg, Cohort 1 (12–17 years), N = 13
  Tmax: 1.02 h
[1]; [5]
  Cmax: 58.3 ± 8.4 µg/mL
  half-life: 5.6 ± 1.01 h
[1]; human, in vivo, 10 mg/kg, Cohort 2 (6–11 years), N = 6
  Tmax: 1.09 h
[1]; [6]
  Cmax: 60.1 ± 11.9 µg/mL
  half-life: 5.19 ± 0.751 h
[1]; human, in vivo, Cohort 1 (12–17 years), N = 13, mean ± SD, read-out: CL (clearance) (converted)
  clearance: 0.497 mL/min/kg
[1]; human, in vivo, Cohort 1 (12–17 years), N = 13, plasma, noncompartmental, mean ± SD, read-out: AUC0-inf (area under the curve extrapolated to infinity)
  AUC(0-inf): 345 ± 58.5 µg·h/mL
[1]; human, in vivo, Cohort 1 (12–17 years), N = 13, plasma, noncompartmental, mean ± SD, read-out: AUC0-last (area under the curve from time zero until the last PK sample)
  AUC(0-t): 326 ± 50 µg·h/mL
[2]; Cohort 1 (12–17 years), N = 14, across six patients, single 10 mg/kg IV
  Number of adverse events: 16
[2]; Cohort 1 (12–17 years), fifteen of the 16 events
  Adverse events deemed probably related to telavancin administration: 94%
[2]; [7]
  Number of adverse events mild in severity: 13
  Number of adverse events moderate in severity: 3
[2]; Cohort 2 (6–11 years), N = 7, across four patients, single 10 mg/kg IV
  Number of adverse events: 11
[2]; Cohort 2 (6–11 years), of 11 AEs, single 10 mg/kg IV
  Number of adverse events mild in severity: nine
